Data taken from PubChem BioAssay (NCI).
Where “and” joins values, the source holds several entries; their conditions need not be identical. Equal values may be shown once.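 Compound exposure: 48 hours, 5 concentrations, 96-well plates. At the GI50, growth is halved. At the TGI there is no net growth.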

Experiments:
Test in all cases: NCI anticancer screen, dose series, 48 h; in the data active means GI50 below about 0.43 µM; inactive means the rest
[1] = tested on: SF-268 CNS
[2] = tested on: T-47D breast
[3] = tested on: SR leukemia
[4] = tested on: ACHN renal
[5] = tested on: MCF7 breast
[6] = tested on: KM12 colon
[7] = tested on: HOP-62 NSCLC
[8] = tested on: SW-620 colon
[9] = tested on: RXF 393 renal
[10] = tested on: SK-MEL-28 melanoma
[11] = tested on: HOP-92 NSCLC
[12] = tested on: NCI-H226 lung
[13] = tested on: A549 NSCLC
[14] = tested on: CCRF-CEM leukemia
[15] = tested on: SNB-75 CNS
[16] = tested on: RPMI-8226 leukemia
[17] = tested on: TK-10 renal
[18] = tested on: SF-539 CNS
[19] = tested on: HCT-116 colon
[20] = tested on: IGROV1 ovarian
[21] = tested on: HCT-15 colon
[22] = tested on: SF-295 CNS
[23] = tested on: HCC-2998 colon
[24] = tested on: SK-MEL-5 melanoma
[25] = tested on: OVCAR-8 ovarian
[26] = tested on: SK-MEL-2 melanoma
[27] = tested on: UO-31 renal
[28] = tested on: LOX IMVI melanoma
[29] = tested on: COLO 205 colon
[30] = tested on: HT29 colon
[31] = tested on: EKVX NSCLC
[32] = tested on: A498 renal
[33] = tested on: SK-OV-3 ovarian
[34] = tested on: SNB-19 CNS
[35] = tested on: NCI-H23 lung
[36] = tested on: MOLT-4 leukemia
[37] = tested on: OVCAR-5 ovarian
[38] = tested on: PC-3 prostate
[39] = tested on: NCI/ADR-RES ovarian
[40] = tested on: HS 578T breast
[41] = tested on: OVCAR-3 ovarian
[42] = tested on: M14 melanoma
[43] = tested on: NCI-H460 lung
[44] = tested on: OVCAR-4 ovarian
[45] = tested on: K-562 leukemia
[46] = tested on: CAKI-1 renal
[47] = tested on: UACC-257 melanoma
[48] = tested on: MDA-MB-231 breast
[49] = tested on: DU-145 prostate
[50] = tested on: MDA-MB-435
[51] = tested on: HL-60(TB) leukemia
[52] = tested on: 786-0 renal
[53] = tested on: NCI-H522 lung
[54] = tested on: UACC-62 melanoma
[55] = tested on: MALME-3M melanoma
[56] = tested on: U251 CNS
[57] = tested on: SN12C renal
[58] = tested on: BT-549 breast

NC(N)=NC(N)=NCCc1ccccc1
inactive: GI50 [1] > 100 µM | GI50 [2] 84.8 µM and > 100 µM | GI50 [3] 8.44 µM | GI50 [4] > 100 µM | GI50 [5] > 100 µM | GI50 [6] > 100 µM | GI50 [7] 37.4 µM and > 100 µM | GI50 [8] > 100 µM | GI50 [9] > 100 µM | GI50 [10] > 100 µM | GI50 [11] 1.51 µM | GI50 [12] > 100 µM | GI50 [13] > 100 µM and 97.1 µM | GI50 [14] 56.1 µM and > 100 µM | GI50 [15] > 100 µM and 81.2 µM | GI50 [16] 11.1 µM and 7.54 µM | GI50 [17] 58.6 µM and > 100 µM | GI50 [18] > 100 µM | GI50 [19] 92.5 µM and 36.3 µM | GI50 [20] > 100 µM | GI50 [21] > 100 µM | GI50 [22] 53.2 µM and > 100 µM | GI50 [23] > 100 µM | GI50 [24] 87.7 µM and 73.3 µM | GI50 [25] > 100 µM | GI50 [26] > 100 µM | GI50 [27] 98.9 µM and 38.5 µM | GI50 [28] > 100 µM | GI50 [29] > 100 µM | GI50 [30] > 100 µM | GI50 [31] 6.79 µM and 7.74 µM | GI50 [33] 64.9 µM and > 100 µM | GI50 [34] > 100 µM | GI50 [35] 50.5 µM and 34.7 µM | GI50 [36] > 100 µM | GI50 [37] > 100 µM | GI50 [38] 45.3 µM and 60.3 µM | GI50 [39] > 100 µM | GI50 [40] > 100 µM | GI50 [41] 83.9 µM and > 100 µM | GI50 [42] > 100 µM | GI50 [43] > 100 µM | GI50 [44] 66.7 µM and 97.9 µM | GI50 [45] 66.6 µM and 30.8 µM | GI50 [46] 58.5 µM and > 100 µM | GI50 [47] > 100 µM and 97.3 µM | GI50 [48] > 100 µM | GI50 [49] > 100 µM | GI50 [50] > 100 µM | GI50 [51] 77.4 µM and > 100 µM | GI50 [52] > 100 µM | GI50 [53] 44.7 µM and > 100 µM | GI50 [54] > 100 µM | GI50 [55] 72 µM | GI50 [56] > 100 µM | GI50 [57] > 100 µM | GI50 [58] > 100 µM and 32.8 µM
> 100 µM: TGI [1] | TGI [2] | TGI [3] | TGI [4] | TGI [5] | TGI [6] | TGI [7] | TGI [8] | TGI [9] | TGI [10] | TGI [11] | TGI [12] | TGI [13] | TGI [14] | TGI [15] | TGI [16] | TGI [17] | TGI [18] | TGI [19] | TGI [20] | TGI [21] | TGI [22] | TGI [23] | TGI [24] | TGI [25] | TGI [26] | TGI [27] | TGI [28] | TGI [29] | TGI [30] | TGI [31] | TGI [32] | TGI [33] | TGI [34] | TGI [35] | TGI [36] | TGI [37] | TGI [38] | TGI [39] | TGI [40] | TGI [41] | TGI [42] | TGI [43] | TGI [44] | TGI [45] | TGI [46] | TGI [47] | TGI [48] | TGI [49] | TGI [50] | TGI [51] | TGI [52] | TGI [53] | TGI [54] | TGI [55] | TGI [56] | TGI [57] | TGI [58]
